Data published in patent US10813919B2, “Use of histone deacetylase inhibitors for enhancing immunotherapies” (Indiana University Research and Technology Corporation, priority 2016, dated 2020).

Experiments:
[1] = test system: RENCA-Luc murine renal cell carcinoma; assay: In vivo tumor growth (RENCA), orthotopic RENCA-Luc syngeneic model; set-up: species or system Balb/c mice; conditions: vs control; entinostat 5 mg/kg oral 5 days/week, anti-PD-1 10 mg/kg I.P.; end-point tumor weight
Procedure: Cell lines: The RENCA-Luc murine renal cell carcinoma cell line, purchased from American Type Culture Collection (National Cancer Institute), was stably transfected with a luciferase reporter in the Pili laboratory. Cells were cultured using RPMI 1640 (Corning) with 10% fetal bovine serum (Corning) and 1% Pen/Strep (Life Technologies). Cells were incubated in an incubator maintained at 37° C. and 5% CO2. 75-80% confluent cells were harvested for orthotopic injection into the kidney of Balb/c mice using 0.25% Trypsin (Corning) and suspended in a 1:1 ratio of MATRIGEL® (Corning) and DPBS (Gibco).
In vivo tumor growth (RENCA): All procedures were performed and approved in strict accordance with the Institutional Animal Care and Use Committee (IACUC) at Roswell Park Cancer Institute, Indiana University School of Medicine, and with the NIH Guide for the Care and Use of Laboratory Animal guidelines.
Female five- to six-week old Balb/c mice (Charles Rivers) were maintained in a temperature controlled room with a 12/12 hour light/dark schedule and food provided ad libitum. 70-80% confluent RENCA-Luc cells were harvested using 0.25% Trypsin (Corning) and suspended in a 1:1 ratio of matrigel (Corning) and HBSS (Gibco), 10 μl containing 1×10^4 cells was injected under the renal capsule. […]

[2] = test system: T regulatory cells (CD4+FoxP3+); assay: FACS analysis of T regulatory cells in end-point blood and tumor samples; format: in vivo, Balb/c mice; conditions: blood
Procedure: (§1) Tumor suspension and spleenocyte preparation: Live tumor sections were isolated from tumors, cut into small pieces, and digested with an enzyme cocktail solution from the mouse tumor dissociation kit (Miltenyi Biotec—130-096-730). Tumors were incubated with the enzyme cocktail for 30 minutes at 37° C. with agitation. The enzyme reaction was arrested using PBS, cells were spun at 300 g, 4° C. for 7 minutes, re-suspended in PBS and mashed through a 70 um cell strainer. Cells from these tumors were either used for flow cytometry analysis or further processed and used for functional analyses.
Cell staining and flow cytometry: Splenocytes, tumor cell suspensions, and peripheral blood cells were washed, blocked with Fc Block (anti-mouse CD16/32 mAb; BD Biosciences) at 4° C. for 15 minutes, and stained with fluorescence conjugated antibodies against surface markers: CD45 (clone 30-F11), CD11b (clone M1/70), Gr1 (clone RB6-8C5), Ly6C (clone AL-21), Ly6G (clone 1A8), F480 (clone BM8), CD8a (clone 53-6.7), CD4 (clone RM4-5) antibodies purchased from BioLegend, eBioscience or BD Biosciences. Cells were then fixed in Fixation/Permeabilization buffer (eBioscience) and stained with antibodies against intracellular proteins, including FoxP3 (NRRF-30) and Granzyme B (clone GB11). The antibodies were purchased from BD Biosciences, Biolegend, and R&D Systems and used in staining. […]

[3] = test system: Myeloid derived suppressor cells (G-MDSCs, M-MDSCs); assay: FACS analysis of G-MDSC and M-MDSC in tumor and blood; format: in vivo, Balb/c mice
Procedure: as §1
Cell staining and flow cytometry: Splenocytes, tumor cell suspensions, and peripheral blood cells were washed, blocked with Fc Block (anti-mouse CD16/32 mAb; BD Biosciences) at 4° C. for 15 minutes, and stained with fluorescence conjugated antibodies against surface markers: CD45 (clone 30-F11), CD11b (clone M1/70), Gr1 (clone RB6-8C5), Ly6C (clone AL-21), Ly6G (clone 1A8), F480 (clone BM8), CD8a (clone 53-6.7), CD4 (clone RM4-5) antibodies purchased from BioLegend, eBioscience or BD Biosciences. Cells were then fixed in Fixation/Permeabilization buffer (eBioscience) and stained with antibodies against intracellular proteins, including FoxP3 (NRRF-30) and Granzyme B (clone GB11). The antibodies were purchased from BD Biosciences, Biolegend, and R&D Systems and used in staining. Stained cells and isotype-control-stained cells, were assayed on a LSR4 or Fortessa flow cytometer (BD Biosciences). Data analysis was performed using the FlowJo (FlowJo LLC) and/or ModFit LT 4.1 software.

[4] = test system: G-MDSCs or M-MDSCs isolated from RENCA tumors; assay: T cell suppression assay, ex vivo, MDSCs isolated from RENCA tumors of treated mice; format: cell-based, mouse
Procedure: T cell isolation & activation: Whole spleens were harvested from naïve mice, mashed and passed through a 70 μm strainer. Cells were then washed, lysed with RBC lysis buffer (Affymetrix 00-4333-57), and cultured in RPMI medium with 10% FBS, Pen (100 units/ml)-Strep ([…]), 1 mM sodium pyruvate, […] non-essential amino-acids, 2 mM L-Glutamine, 55 μM BME, with anti-CD3 (eBioscience 16-0031-85) and anti-CD28 (eBioscience 5012503) for approximately 24 hours. CD8^+ T cells were then isolated using a CD8a^+ T cell isolation kit from Miltenyi Biotec (130-104-075), stained with CFSE (NC9759757), according to the manufacturer's protocol, and co-cultured with MDSCs as described below. MDSC Isolation: MDSCs were isolated from RENCA tumors of each group using Miltenyi Biotec's Myeloid Derived Suppressor Cell Isolation Kit (130-094-538) and co-cultured with isolated CD8^+ T cells in serially diluted concentrations. T cell suppression assay: T cells (1×10^5; isolated with a CD8a^+ T cell isolation kit; Miltenyi Biotec) were cultured in plates with varying numbers of either G-MDSCs or M-MDSCs isolated from RENCA tumors for 16-18 hours. T cells isolated in the listed method were co-cultured with entinostat treated J774M cells for 68-72 hours. Cells were then harvested, stained and analyzed via FACS analysis. Cell staining and flow cytometry: Splenocytes, tumor cell suspensions, and peripheral blood cells were washed, blocked with Fc Block (anti-mouse CD16/32 mAb; BD Biosciences) at 4° C. for 15 minutes, and stained with fluorescence conjugated antibodies against surface markers: CD45 (clone 30-F11), CD11b (clone M1/70), Gr1 (clone RB6-8C5), Ly6C (clone AL-21), Ly6G (clone 1A8), F480 (clone BM8), CD8a (clone 53-6.7), CD4 (clone RM4-5) antibodies purchased from BioLegend, eBioscience or BD Biosciences. Cells were then fixed in Fixation/Permeabilization buffer (eBioscience) and stained with antibodies against intracellular proteins, including FoxP3 (NRRF-30) and Granzyme B (clone GB11). The antibodies were purchased from BD Biosciences, Biolegend, and R&D Systems and used in staining. […]

J774M cells = assay: J774M cell proliferation or viability; format: cell-based; conditions: 0.01-5 μM, up to 48 hours
Procedure: The J774M cell line was cultured with DMEM (Corning) media with 10% fetal bovine serum (Corning) and 1% Pen/Strep (Life Technologies). Cells were incubated in 37° C. and 5% CO2.

[5] = test system: MDSC-like cell line J774M; assay: T cell suppression assay with entinostat treated J774M cells; format: cell-based; conditions: J774M treated 24 hours in vitro, co-culture with pre-activated CD8+ T cells 68-72 hours
Procedure: The J774M cell line was cultured with DMEM (Corning) media with 10% fetal bovine serum (Corning) and 1% Pen/Strep (Life Technologies). Cells were incubated in 37° C. and 5% CO2. […] T cell isolation & activation: Whole spleens were harvested from naïve mice, mashed and passed through a 70 μm strainer. Cells were then washed, lysed with RBC lysis buffer (Affymetrix 00-4333-57), and cultured in RPMI medium with 10% FBS, Pen (100 units/ml)-Strep ([…]), 1 mM sodium pyruvate, […] non-essential amino-acids, 2 mM L-Glutamine, 55 μM BME, with anti-CD3 (eBioscience 16-0031-85) and anti-CD28 (eBioscience 5012503) for approximately 24 hours. CD8^+ T cells were then isolated using a CD8a^+ T cell isolation kit from Miltenyi Biotec (130-104-075), stained with CFSE (NC9759757), according to the manufacturer's protocol, and co-cultured with MDSCs as described below. T cell suppression assay: T cells (1×10^5; isolated with a CD8a^+ T cell isolation kit; Miltenyi Biotec) were cultured in plates with varying numbers of either G-MDSCs or M-MDSCs isolated from RENCA tumors for 16-18 hours. T cells isolated in the listed method were co-cultured with entinostat treated J774M cells for 68-72 hours. Cells were then harvested, stained and analyzed via FACS analysis.

arginase-1 (Arg1) = assay: Quantitative real-time PCR of Arginase 1 in J774M cells; format: cell-based; conditions: 0.5 μM, 1 μM, 2 μM vs untreated control (p=0.003; 0.0041; 0.0043)
Procedure: Quantitative real-time PCR: mRNA was extracted from J774M cells that were treated±entinostat using standard Trizol protocols. RNA concentration and purity were determined through measurement of A260/280 ratios with a Synergy Hi Multi-Mode reader. cDNA was prepared using the iScript kit (Bio-Rad) and qPCR was performed using an Applied Biosystems 7900HT fast real time PCR system. Sequence Detection Systems software v2.3 was used to identify the cycle threshold (Ct) values and to generate gene expression curves. Data were normalized to Gapdh expression and fold change was calculated. The primers used for target genes were: Gapdh_foward 5′-[…]-3′, Gapdh_reverse 5′-[…]-3′ (SEQ ID NO:1), Arginase 1_forward 5′-[…]-3′ (SEQ ID NO:2), and Arginase 1_reverse 5′-[…]-3′ (SEQ ID NO:3).

iNOS = assay: Fold change of iNOS in J774M cells; format: cell-based; conditions: J774M cells treated with entinostat
chemokines and cytokines = assay: Proteome Profiler Mouse XL Cytokine array (Ary028) of tumor lysates and serum; format: in vivo
Procedure: Proteome Profile: Tumor tissue was homogenized in PBS containing protease inhibitors. Following homogenization, Triton X-100 was added to a final concentration of 1%, frozen at −80° C., thawed, centrifuged as 10,000 g for 5 minutes, quantified and assayed according to the manufacturer's protocol. Blood samples were collected from mice in each cohort, allowed to clot for 2 hours at room temperature, centrifuged at 2000 g for 15 minutes. Serum samples were frozen at −80° C. until time of analysis at which time they were run according to manufacturer's protocol. All samples were processed and run on R&D Systems mouse XL cytokine array kit (Ary028).

[6] = test system: advanced renal cell carcinoma; conditions: advanced renal cell carcinoma patients, cited from earlier work

Compound | tumor growth inhibition [1] [%] | FoxP3 protein levels (MFI) in circulating CD4+FoxP3+ cells [2] | tumor infiltrating G-MDSC population ([3]; TME, vs control) | tumor infiltrating M-MDSC population ([3]; TME, vs control) | circulating G-MDSCs ([3]; blood) | circulating M-MDSCs ([3]; blood) | capacity of MDSCs (G-MDSC or M-MDSC) to inhibit CD8+ T cell proliferation ([4]; MDSC to T cell ratios 1:1, 0.5:1, 0.25:1, co-culture 16-18 hours, mice treated in vivo, p≤0.01) | CD8+ T cell proliferation in co-culture with MDSCs from treated mice ([4]; co-culture 16-18 hours, similar to control stimulated CD8+ T cells alone) [%] | increase in Granzyme B production by CD8+ T cells ([4]; compared to co-culture with MDSCs from untreated tumor-bearing mouse, p<0.01) | J774M cell proliferation or viability (J774M cells) | CD8+ T cell proliferation in co-culture with treated J774M cells [5] | arginase-1 (Arg1) expression (arginase-1 (Arg1)) | iNOS fold change (iNOS) | circulating pro-tumor associated chemokines and cytokines (chemokines and cytokines; serum vs control, adiponectin, angiopoietin-2, chitinase 3-like 1, CCL12, C5, c-reactive protein, IL-6, pentraxins 2/3, periostin, CCL17, M-CSF, GM-CSF, MMP-2, MMP-9, CCL2, osteoprotegerin, VCAM) | MDSC associated trafficking/accumulation and expansion/activation cytokines in the TME (chemokines and cytokines; tumor lysates vs control, CCL2, VCAM-1/CD106, Angiopoietin-2, G-CSF, GM-CSF, IL-1β, IL-10) | anti-tumor chemokines and cytokines in the TME (chemokines and cytokines; tumor lysates vs control, CXCL10/IP-10, E-selectin, IL-1ra, IL-4, IL-12p40) | upregulation of anti-tumor cytokines/chemokines (chemokines and cytokines; vs control cohort, CXCL9, CXCL10, IL-4, IL-13, E-selectin, IL-12p40) | treatment related adverse events [6] | increase in overall survival ([6]; compared to standard of care, everolimus) [%]
Nc1ccccc1NC(=O)c1ccc(CNC(=O)OCc2cccnc2)cc1 [entinostat, Pyridin-3-ylmethyl N-[[4-[(2-aminophenyl)carbamoyl]phenyl]methyl]carbamate] | 52.6 | significant decrease | slight increase | slight increase | slight decreases | significant increases | significant reduction | ~90 | approximately 40% | no significant alteration | significant increase | significant inhibition | inconclusive results | Significant decreases | significant reduction | significant upregulation | note observed | – | –
nivolumab: a PD-1 inhibitor, immune checkpoint inhibitor approved for advanced renal cell carcinoma | – | – | – | – | – | – | – | – | – | – | – | – | – | – | – | – | – | limited treatment related adverse events | 78
